In US9512126B2, “Substituted imidazopyridazines” (Bayer Intellectual Property GmbH, priority 2012, dated 2016):

assay: In vitro metabolic stability in rat hepatocytes (including calculation of hepatic in vivo blood clearance); format: in vitro ADME; details: Han Wistar, hepatocytes (freshly isolated, suspension), read-out: CL (hepatic in vivo blood clearance) (converted)
Protocol: Investigation of In Vitro Metabolic Stability in Rat Hepatocytes (Including Calculation of Hepatic In Vivo Blood Clearance (CL))
Hepatocytes from Han Wistar rats were isolated via a 2-step perfusion method. After perfusion, the liver was carefully removed from the rat: the liver capsule was opened and the hepatocytes were gently shaken out into a Petri dish with ice-cold WME. The resulting cell suspension was filtered through sterile gaze in 50 ml falcon tubes and centrifuged at 50×g for 3 min at room temperature. The cell pellet was resuspended in 30 ml WME and centrifuged through a Percoll® gradient for 2 times at 100×g. The hepatocytes were washed again with Williams' medium E (WME) and resuspended in medium containing 5% FCS. Cell viability was determined by trypan blue exclusion.
For the metabolic stability assay liver cells were distributed in WME containing 5% FCS to glass vials at a density of 1.0×10^6 vital cells/ml. The test compound was added to a final concentration of 1 μM. During incubation, the hepatocyte suspensions were continuously shaken and aliquots were taken at 2, 8, 16, 30, 45 and 90 min, to which equal volumes of cold methanol were immediately added.
Samples were frozen at −20° C. over night, after subsequently centrifuged for 15 minutes at 3000 rpm and the supernatant was analyzed with an Agilent 1200 HPLC-system with LCMS/MS detection.
The half-life of a test compound was determined from the concentration-time plot. From the half-life the intrinsic clearances were calculated. Together with the additional parameters liver blood flow, amount of liver cells in vivo and in vitro. The hepatic in vivo blood clearance (CL) and the maximal oral bioavailability (Fmax) was calculated. The following parameter values were used: Liver blood flow—4.2 L/h/kg rat; specific liver weight—32 g/kg rat body weight; liver cells in vivo—1.1×10^8 cells/g liver, liver cells in vitro—0.5×10^6 ml.

Row | SMILES | CLhep predicted at 1 μM [mL/min/kg]
1 | Cc1cc(-c2cnc3c(NCCC(F)(F)F)cc(C(C)(O)c4cccc(F)c4O)nn23)ccc1C(=O)NC1CC1 (racemic) [Example 4, (RS)—N-Cyclopropyl-4-{6-[1-(3-fluoro-2-hydroxyphenyl)-1-hydroxyethyl]-8-[(3,3,3-trifluoropropyl)amino]imidazo[1,2-b]pyridazin-3-yl}-2-methylbenzamide] | 45
2 | Cc1cc(-c2cnc3c(NCCC(F)(F)F)cc(C(F)c4cccc(F)c4)nn23)ccc1C(=O)NC1CC1 (racemic) [Example 5, (RS)—N-Cyclopropyl-4-{6-[fluoro(3-fluorophenyl)methyl]-8-[(3,3,3-trifluoropropyl)amino]imidazo[1,2-b]pyridazin-3-yl}-2-methylbenzamide] | 35
3 | Cc1cc(-c2cnc3c(NCCC(F)(F)F)cc(C(O)c4cc(F)ccc4F)nn23)ccc1C(=O)NC1CC1 (racemic) [Example 11, (RS)—N-Cyclopropyl-4-{6-[(2,5-difluorophenyl)(hydroxy)methyl]-8-[(3,3,3-trifluoropropyl)amino]imidazo[1,2-b]pyridazin-3-yl}-2-methylbenzamide] | 38.3
4 | COc1ccc(Cc2cc(NCCC(F)(F)F)c3ncc(-c4ccc(C(=O)NC5CC5)c(C)c4)n3n2)cc1F [Comparative Example 1, N-Cyclopropyl-4-{6-(3-fluoro-4-methoxybenzyl)-8-[(3,3,3-trifluoropropyl)amino]imidazo[1,2-b]pyridazin-3-yl}-2-methylbenzamide, reference compound] | 50
5 | Cc1cc(-c2cnc3c(NCCC(F)(F)F)cc(Cc4cccc(F)c4O)nn23)ccc1C(=O)NC1CC1 [Comparative Example 2, N-Cyclopropyl-4-{6-(3-fluoro-2-hydroxybenzyl)-8-[(3,3,3-trifluoropropyl)amino]imidazo[1,2-b]pyridazin-3-yl}-2-methylbenzamide, reference compound] | 68.3
6 | COc1cccc(Cc2cc(NCCC(F)(F)F)c3ncc(-c4ccc(C(=O)NC5CC5)c(C)c4)n3n2)c1 [Comparative Example 4, N-cyclopropyl-4-{6-(3-methoxybenzyl)-8-[(3,3,3-trifluoropropyl)amino]imidazo[1,2-b]pyridazin-3-yl}-2-methylbenzamide, reference compound] | 56.7
7 | C=C(c1ccc(OC)c(F)c1)c1cc(NCCC(F)(F)F)c2ncc(-c3ccc(C(=O)NC4CC4)c(C)c3)n2n1 [Example 1, N-Cyclopropyl-4-{6-[1-(3-fluoro-4-methoxyphenyl)ethenyl]-8-[(3,3,3-trifluoropropyl)amino]imidazo[1,2-b]pyridazin-3-yl}-2-methylbenzamide] | 43.3
8 | COc1cccc(C(=O)c2cc(NCCC(F)(F)F)c3ncc(-c4ccc(C(=O)NC5CC5)c(C)c4)n3n2)c1 [Example 7, N-Cyclopropyl-4-{6-(3-methoxybenzoyl)-8-[(3,3,3-trifluoropropyl)amino]imidazo[1,2-b]pyridazin-3-yl}-2-methylbenzamide] | 51.7
9 | C=C(c1ccc(OC)cc1)c1cc(NCCC(F)(F)F)c2ncc(-c3ccc(C(=O)NC4CC4)c(C)c3)n2n1 [Example 10, N-Cyclopropyl-4-{6-[1-(4-methoxyphenyl)vinyl]-8-[(3,3,3-trifluoropropyl)amino]imidazo[1,2-b]pyridazin-3-yl}-2-methylbenzamide] | 36.7
10 | Cc1cc(-c2cnc3c(NCCC(F)(F)F)cc(C(=O)c4cc(F)ccc4F)nn23)ccc1C(=O)NC1CC1 [Example 12, N-Cyclopropyl-4-{6-(2,5-difluorobenzoyl)-8-[(3,3,3-trifluoropropyl)amino]imidazo[1,2-b]pyridazin-3-yl}-2-methylbenzamide] | 23.3
11 | Cc1cc(-c2cnc3c(NCCC(F)(F)F)cc(C(=O)c4cccc(F)c4F)nn23)ccc1C(=O)NC1CC1 [Example 14, N-Cyclopropyl-4-{6-(2,3-difluorobenzoyl)-8-[(3,3,3-trifluoropropyl)amino]imidazo[1,2-b]pyridazin-3-yl}-2-methylbenzamide] | 35
12 | Cc1cc(-c2cnc3c(NCCC(F)(F)F)cc(C(F)(F)c4cccc(F)c4F)nn23)ccc1C(=O)NC1CC1 [Example 18, N-Cyclopropyl-4-{6-[(2,3-difluorophenyl)(difluoro)methyl]-8-[(3,3,3-trifluoropropyl)amino]imidazo[1,2-b]pyridazin-3-yl}-2-methylbenzamide] | 16.7
13 | Cc1cc(-c2cnc3c(NCCC(F)(F)F)cc(C4(c5cc(F)ccc5O)CC4)nn23)ccc1C(=O)NC1CC1 [Example 23, N-cyclopropyl-4-{6-[1-(5-fluoro-2-hydroxyphenyl)cyclopropyl]-8-[(3,3,3-trifluoropropyl)amino]imidazo[1,2-b]pyridazin-3-yl}-2-methylbenzamide] | 41.7
14 | C=C(c1cccc(F)c1)c1cc(NCCC(F)(F)F)c2ncc(-c3ccc(C(=O)NC4CC4)c(C)c3)n2n1 [Example 24, N-cyclopropyl-4-{6-[1-(3-fluorophenyl)ethenyl]-8-[(3,3,3-trifluoropropyl)amino]imidazo[1,2-b]pyridazin-3-yl}-2-methylbenzamide] | 36.7

Continued, values first:

Row | CLhep predicted at 1 μM [mL/min/kg] | SMILES
15 | 56.7 | Cc1cc(-c2cnc3c(NCCC(F)(F)F)cc(C(O)c4cccc(F)c4O)nn23)ccc1C(=O)NC1CC1 (racemic) [Example 3, (RS)—N-Cyclopropyl-4-{6-[(3-fluoro-2-hydroxyphenyl)(hydroxy)methyl]-8-[(3,3,3-trifluoropropyl)amino]imidazo[1,2-b]pyridazin-3-yl}-2-methylbenzamide]
16 | 40 | Cc1cc(-c2cnc3c(NCCC(F)(F)F)cc(Cc4cccc(F)c4)nn23)ccc1C(=O)NC1CC1 [Comparative Example 3, N-Cyclopropyl-4-{6-(3-fluorobenzyl)-8-[(3,3,3-trifluoropropyl)amino]imidazo[1,2-b]pyridazin-3-yl}-2-methylbenzamide, reference compound]
17 | 45 | COc1ccc(Cc2cc(NCCC(F)(F)F)c3ncc(-c4ccc(C(=O)NC5CC5)c(C)c4)n3n2)cc1 [Comparative Example 5, N-Cyclopropyl-4-{6-(4-methoxybenzyl)-8-[(3,3,3-trifluoropropyl)amino]imidazo[1,2-b]pyridazin-3-yl}-2-methylbenzamide, reference compound]
18 | 25 | COc1ccc(C(F)(F)c2cc(NCCC(F)(F)F)c3ncc(-c4ccc(C(=O)NC5CC5)c(C)c4)n3n2)cc1F [Example 2, N-Cyclopropyl-4-{6-[difluoro(3-fluoro-4-methoxyphenyl)methyl]-8-[(3,3,3-trifluoropropyl)amino]imidazo[1,2-b]pyridazin-3-yl}-2-methylbenzamide]
19 | 30 | C=C(c1cccc(OC)c1)c1cc(NCCC(F)(F)F)c2ncc(-c3ccc(C(=O)NC4CC4)c(C)c3)n2n1 [Example 8, N-Cyclopropyl-4-{6-[1-(3-methoxyphenyl)vinyl]-8-[(3,3,3-trifluoropropyl)amino]imidazo[1,2-b]pyridazin-3-yl}-2-methylbenzamide]
20 | 20 | COc1ccc(C(=O)c2cc(NCCC(F)(F)F)c3ncc(-c4ccc(C(=O)NC5CC5)c(C)c4)n3n2)cc1 [Example 9, N-Cyclopropyl-4-{6-(4-methoxybenzoyl)-8-[(3,3,3-trifluoropropyl)amino]imidazo[1,2-b]pyridazin-3-yl}-2-methylbenzamide]
21 | 18.3 | COc1ccc(C(=O)c2cc(NCCC(F)(F)F)c3ncc(-c4ccc(C(=O)NC5CC5)c(C)c4)n3n2)cc1F [Example 13, N-Cyclopropyl-4-{6-(3-fluoro-4-methoxybenzoyl)-8-[(3,3,3-trifluoropropyl)amino]imidazo[1,2-b]pyridazin-3-yl}-2-methylbenzamide]
22 | 33.3 | C=C(c1cc(NCCC(F)(F)F)c2ncc(-c3ccc(C(=O)NC4CC4)c(C)c3)n2n1)c1cccc(F)c1F [Example 15, N-Cyclopropyl-4-{6-[1-(2,3-difluorophenyl)vinyl]-8-[(3,3,3-trifluoropropyl)amino]imidazo[1,2-b]pyridazin-3-yl}-2-methylbenzamide]
23 | 31.7 | COc1ccc(C(F)(F)c2cc(NCCC(F)(F)F)c3ncc(-c4ccc(C(=O)NC5CC5)c(C)c4)n3n2)cc1 [Example 16, N-Cyclopropyl-4-{6-[difluoro(4-methoxyphenyl)methyl]-8-[(3,3,3-trifluoropropyl)amino]imidazo[1,2-b]pyridazin-3-yl}-2-methylbenzamide]
24 | 35 | Cc1cc(-c2cnc3c(NCCC(F)(F)F)cc(C4(c5cccc(F)c5F)CC4)nn23)ccc1C(=O)NC1CC1 [Example 17, N-Cyclopropyl-4-{6-[1-(2,3-difluorophenyl)cyclopropyl]-8-[(3,3,3-trifluoropropyl)amino]imidazo[1,2-b]pyridazin-3-yl}-2-methylbenzamide]
25 | 50 | C=C(c1cc(NCCC(F)(F)F)c2ncc(-c3ccc(C(=O)NC4CC4)c(C)c3)n2n1)c1cc(F)ccc1O [Example 22, N-cyclopropyl-4-{6-[1-(5-fluoro-2-hydroxyphenyl)ethenyl]-8-[(3,3,3-trifluoropropyl)amino]imidazo[1,2-b]pyridazin-3-yl}-2-methylbenzamide]
